Source: ChEMBL document CHEMBL5120850, “Conformational adjustment overcomes multiple drug-resistance mutants of tropomyosin receptor kinase” (Eur J Med Chem, 2022)

Columns and labels:
[1] = test system: BaF3; experiment: Antitumor activity against mouse Ba/F3 cells expressing in […] wildtype allografted in BALB/cA mouse assessed as reduction in tumor growth at 30 mg/kg twice daily for 12 to 14 days relative to control; assay type: functional; conditions: time 12-14 day, read-out: TGI
[2] = test system: BaF3; experiment: Antitumor activity against mouse Ba/F3 cells expressing in ETV6-TRKC-G623R mutant allografted in BALB/cA mouse assessed as reduction in tumor growth at 30 mg/kg twice daily for 12 to 14 days relative to control; conditions: BaF3, read-out: TGI

O=C(Nc1cnn2ccc(N3CCC[C@@H]3c3cc(F)ccc3F)nc12)N1CC[C@H](O)C1 [LAROTRECTINIB]
inhibition in vivo at 30 mg/kg [1]: 30%

C[C@@H]1CCc2ncc(F)cc2[C@H]2CCCN2c2ccn3ncc(c3n2)C(=O)N1 [SELITRECTINIB]
inhibition in vivo at 30 mg/kg [2]: 73%
